Laboratory results from publication PMC6882899 (Scientific Reports, 2019).

Biological target: zebrafish WT α1BB-AR (Danio rerio, UniProt Q5U3D9)
Assay: cell-based

zebrafish WT α1BB-AR, sequence (Q5U3D9 1-481): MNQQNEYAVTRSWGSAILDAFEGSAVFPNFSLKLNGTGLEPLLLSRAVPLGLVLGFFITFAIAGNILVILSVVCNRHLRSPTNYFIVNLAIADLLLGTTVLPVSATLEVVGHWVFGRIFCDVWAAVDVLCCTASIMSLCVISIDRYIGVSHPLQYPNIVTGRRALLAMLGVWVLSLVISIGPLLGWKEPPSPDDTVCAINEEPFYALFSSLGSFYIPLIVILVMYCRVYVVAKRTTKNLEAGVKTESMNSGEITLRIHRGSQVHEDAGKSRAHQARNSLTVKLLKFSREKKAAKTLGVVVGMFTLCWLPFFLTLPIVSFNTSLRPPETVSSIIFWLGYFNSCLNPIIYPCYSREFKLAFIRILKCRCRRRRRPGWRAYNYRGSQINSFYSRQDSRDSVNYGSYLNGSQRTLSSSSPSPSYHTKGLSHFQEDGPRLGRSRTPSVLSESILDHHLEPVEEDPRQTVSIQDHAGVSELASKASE

NC[C@H](O)c1ccc(O)c(O)c1 [NE, norepinephrine]
EC50: 407 ± 45 nM
